This is an account of results in US6858638B2, “Substituted indazoles, compositions containing them, method of production and use” (Aventis Pharma S.A., priority 2002, dated 2005).

Data set [1] addresses T1, human FAK (Homo sapiens, UniProt Q05397).
T1 construct: The complete cDNA of human FAK; made in house; host or cells: baculovirus expression system (vector pFastBac HTc)
The experiment in a line: FAK autophosphorylation inhibition, time resolved fluorescence (HTRF) assay. The format is biochemical. To be noted: 10 μM (values without asterisk); for inhibition at 10 µM: read-out: FAK % inhib at 10 μM. In outline: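 His-tagged full-length human FAK from baculovirus (6.6 µg/ml) self-phosphorylates with 15 µM ATP in HEPES pH 7.2, MgCl2, vanadate, 1 h at 37 °C. HTRF detection (Eu-anti-phosphotyrosine / XL665-anti-His), 665/620 nm ratio; % inhibition vs untreated control, duplicate mean.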
A general note: TR-FRET usually uses a lanthanide donor and a delayed reading to cut background.

The target in data set [2] is T2, human KDR enzyme (Homo sapiens, UniProt P35968).
T2 construct: The cytoplasmic domain of the human KDR enzyme; GST; made in house; host or cells: SF21 insect cells (baculovirus)
The experiment in a line: KDR substrate (PLCγ) phosphorylation, scintillation assay. The format is biochemical. To be noted: 10 μM; for inhibition at 10 µM: read-out: KDR % inhib at 10 μM. In short, it runs like this:
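GST-fused human KDR cytoplasmic domain from SF21 cells (about 60% pure, 100 ng) phosphorylated 2 μg of GST-PLCγ SH2-SH3 fragment. The trigger solution held γ33P-ATP with 2 μM cold ATP, in MOPS buffer pH 7.2 with Mg2+, Mn2+, vanadate and NaF. Reactions ran 1 h at 37 °C, were stopped with EDTA and counted by scintillation; results are % inhibition versus the no-compound control.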

Data set [3] deals with T3, Aurora2 kinase (Homo sapiens, UniProt O14965).
T3 construct: A complete recombinant Aurora2 enzyme; His tag (N); made in house; host or cells: E. coli
T3 sequence (O14965 1-403): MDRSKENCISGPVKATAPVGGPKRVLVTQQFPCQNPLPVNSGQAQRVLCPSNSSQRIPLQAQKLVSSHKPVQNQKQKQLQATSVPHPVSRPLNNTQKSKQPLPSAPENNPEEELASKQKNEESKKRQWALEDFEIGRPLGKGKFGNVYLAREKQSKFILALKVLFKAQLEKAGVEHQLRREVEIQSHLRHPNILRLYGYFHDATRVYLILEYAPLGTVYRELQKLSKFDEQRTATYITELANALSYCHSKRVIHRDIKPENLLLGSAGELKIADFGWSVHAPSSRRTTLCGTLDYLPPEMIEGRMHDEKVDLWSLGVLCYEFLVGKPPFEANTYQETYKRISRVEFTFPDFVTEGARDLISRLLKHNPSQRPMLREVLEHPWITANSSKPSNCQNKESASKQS
The experiment in a line: Aurora2 kinase radioactivity scintillation assay using nickel chelate (NuMA substrate). Format: biochemical. To be noted: 10 μM; for inhibition at 10 µM: read-out: Aurora2 % inhib at 10 μM. In outline:
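His-tagged full-length Aurora2 (0.02 μM, E. coli) phosphorylating His-tagged NuMA C-terminal fragment (0.5 μM) with 1 μM ATP plus [33P]-ATP, 30 min at 37 °C, pH 7.5 Tris buffer with MgCl2. Nickel-chelate scintillation read; percent inhibition versus no-compound control.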

Data set [4] relates to c-Src protein. As to the kind of experiment: Src kinase phosphorylation of biotinylated cdc2 substrate, fluorescence (DELFIA). Format: biochemical, human. As for the experimental part: The inhibition of the Src kinase is evaluated by measuring the phosphorylation of the biotinylated cdc2 substrate (Pierce) detected by fluorescence (DELFIA) using an antiphosphotyrosine antibody labeled with Europium, in 96-well Wallac plates. The c-Src protein used is a recombinant human protein produced in Baculovirus, comprising the SH3 and SH2 and the catalytic domains. The enzyme, the substrate and the various concentrations of test compounds are placed in the well in a 50 mM Tris buffer containing 10 mM MgCl2. The reaction is initiated by adding 10 μM of ATP. After incubation for 60 minutes at 30° C., the reaction is stopped by adding 75 mM EDTA. 50 μl are taken from each well and transferred into a plate coated with streptavidin. After incubation for 30 minutes at 25° C., the wells are washed with a washing buffer (Wallac) and then the antiphosphotyrosine antibody (PY20-Europium [Perkin Elmer]) is added in a volume of 75 μl. The plate is incubated for 30 minutes at 25° C. and then an “Enhancer” solution (Wallac) is added before reading the fluorescence using a fluorimeter (Perkin Elmer). The background noise is evaluated in triplicate in wells containing the substrate and the antibody in the absence of enzyme. The activity of the enzyme is measured (in triplicate) in the wells containing all the reagents in the absence of compound. The inhibition of the Src activity is expressed as percentage inhibition of the activity of the control determined in the absence of compound. The compound PP2 (Calbiochem) is included at various concentrations in each experiment as an inhibition control.

Data set [5] concerns the target T4, human IGF1R cytoplasmic domain (Homo sapiens, UniProt P08069).
T4 construct: The human IGF1R cytoplasmic domain was cloned; made in house; host or cells: SF21 insect cells (baculovirus)
As to the kind of experiment: IGF1R autophosphorylation inhibition, time resolved fluorescence (HTRF) assay. To be noted: 10 μM. Format: biochemical. In short, it runs like this: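 GST-tagged human IGF1R cytoplasmic domain from SF21 cells incubated with compound in 50 mM Hepes pH 7.5, 5 mM MnCl2, 50 mM NaCl, […] ATP. Autophosphorylation detected by HTRF (Eu-K anti-phosphotyrosine, XL665 anti-GST) after EDTA/KF stop; percentage inhibition versus no-compound control.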

The structures appear in SMILES notation.

T2 sequence (P35968 786-1356 limits assumed): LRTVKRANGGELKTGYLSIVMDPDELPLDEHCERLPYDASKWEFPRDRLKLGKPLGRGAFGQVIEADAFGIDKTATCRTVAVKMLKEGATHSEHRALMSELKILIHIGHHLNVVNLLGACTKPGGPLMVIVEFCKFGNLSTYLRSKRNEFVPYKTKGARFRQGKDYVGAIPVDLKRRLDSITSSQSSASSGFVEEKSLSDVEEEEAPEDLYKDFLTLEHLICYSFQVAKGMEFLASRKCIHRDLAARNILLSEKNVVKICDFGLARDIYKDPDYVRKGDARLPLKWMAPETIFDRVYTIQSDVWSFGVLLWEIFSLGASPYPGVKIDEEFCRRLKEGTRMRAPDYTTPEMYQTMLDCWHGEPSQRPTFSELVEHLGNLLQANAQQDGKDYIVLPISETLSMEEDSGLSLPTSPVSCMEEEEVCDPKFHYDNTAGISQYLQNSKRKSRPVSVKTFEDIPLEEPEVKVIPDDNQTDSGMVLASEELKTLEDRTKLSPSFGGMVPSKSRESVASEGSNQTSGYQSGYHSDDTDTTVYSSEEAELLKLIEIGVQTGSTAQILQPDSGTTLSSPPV
T1 sequence (Q05397 whole entry): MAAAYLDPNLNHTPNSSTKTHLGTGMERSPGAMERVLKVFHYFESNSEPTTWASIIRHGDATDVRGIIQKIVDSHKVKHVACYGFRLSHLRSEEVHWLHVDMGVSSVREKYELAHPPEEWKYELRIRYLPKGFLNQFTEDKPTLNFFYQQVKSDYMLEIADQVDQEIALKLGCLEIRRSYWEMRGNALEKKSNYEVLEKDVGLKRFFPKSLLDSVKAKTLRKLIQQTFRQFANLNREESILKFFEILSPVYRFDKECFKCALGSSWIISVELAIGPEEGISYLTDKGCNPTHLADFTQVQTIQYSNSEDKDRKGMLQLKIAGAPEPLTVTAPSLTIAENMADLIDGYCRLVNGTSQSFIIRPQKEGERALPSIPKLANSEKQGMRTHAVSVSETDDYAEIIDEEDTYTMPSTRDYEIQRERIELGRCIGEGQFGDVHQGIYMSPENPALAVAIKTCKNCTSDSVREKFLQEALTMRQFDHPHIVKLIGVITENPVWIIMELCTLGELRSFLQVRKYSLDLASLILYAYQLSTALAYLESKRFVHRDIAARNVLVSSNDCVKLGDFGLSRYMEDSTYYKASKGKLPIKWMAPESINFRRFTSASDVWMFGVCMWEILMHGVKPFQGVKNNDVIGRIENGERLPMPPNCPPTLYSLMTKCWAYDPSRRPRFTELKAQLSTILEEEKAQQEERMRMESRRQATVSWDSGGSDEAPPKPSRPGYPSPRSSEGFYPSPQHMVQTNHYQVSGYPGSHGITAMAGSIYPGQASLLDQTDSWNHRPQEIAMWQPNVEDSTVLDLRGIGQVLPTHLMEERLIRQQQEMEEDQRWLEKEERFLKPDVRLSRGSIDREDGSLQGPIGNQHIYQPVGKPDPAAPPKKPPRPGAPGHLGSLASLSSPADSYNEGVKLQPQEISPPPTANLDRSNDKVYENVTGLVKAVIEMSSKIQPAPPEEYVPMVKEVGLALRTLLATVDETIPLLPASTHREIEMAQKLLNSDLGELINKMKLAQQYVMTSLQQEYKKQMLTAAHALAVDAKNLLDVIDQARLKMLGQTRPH
T4 sequence (P08069 960-1367 limits assumed): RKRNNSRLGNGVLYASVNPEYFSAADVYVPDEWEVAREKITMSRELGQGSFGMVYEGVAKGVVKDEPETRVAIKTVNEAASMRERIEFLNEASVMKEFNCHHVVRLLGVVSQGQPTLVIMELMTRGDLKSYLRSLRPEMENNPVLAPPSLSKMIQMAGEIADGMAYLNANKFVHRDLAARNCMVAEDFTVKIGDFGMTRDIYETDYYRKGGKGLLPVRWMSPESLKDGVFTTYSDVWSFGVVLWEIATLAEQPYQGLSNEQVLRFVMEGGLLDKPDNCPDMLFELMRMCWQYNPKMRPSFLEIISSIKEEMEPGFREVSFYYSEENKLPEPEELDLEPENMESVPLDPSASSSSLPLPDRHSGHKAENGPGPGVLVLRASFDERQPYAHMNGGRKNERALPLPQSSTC

As for `O=S(=O)(Nc1ccc2[nH]nc(-c3ccccc3)c2c1)c1cccc(C(F)(F)F)c1` [Example 130, 3-Trifluoromethyl-N-(3-phenyl-1H-indazol-5-yl)-benzenesulfonamide], the inhibition at 10 µM in data set [1] was 26%; in data set [2], 94%; in data set [3], 69%. For the same compound, the “SRC % inhib at 10 μM” value in data set [4] is recorded as 18%.

For the compound `CS(=O)(=O)c1ccccc1S(=O)(=O)Nc1ccc2[nH]nc(-c3csc4ccccc34)c2c1` [Example 64, N-(3-Benzo[b]thiophen-3-yl-1H-indazol-5-yl)-2-methylsulfonylbenzenesulfonamide], the melting point was 235 °C. Moreover, the inhibition at 10 µM in data set [1] amounted to 30%. For the same compound, the inhibition at 10 µM in data set [2] came to 41%. Further, the inhibition at 10 µM in data set [3] was found to be 72%. Besides, the “SRC % inhib at 10 μM” value in data set [4] turned out to be 86%.

As to `CCCCN(CCCC)c1cccc2c(S(=O)(=O)Nc3ccc4[nH]nc(-c5ccccc5)c4c3)cccc12` [Example 147, 5-Dibutylamino-N-(3-phenyl-1H-indazol-5-yl)naphthalene-1-sulfonamide], the inhibition at 10 µM worked out at 0% in data set [1], 96% in data set [2] and 86% in data set [3]. In addition, the “SRC % inhib at 10 μM” value in data set [4] stood at 88%.

As to `CS(=O)(=O)c1ccccc1S(=O)(=O)Nc1ccc2[nH]nc(-c3cccc4ccccc34)c2c1` [Example 72, 2-Methylsulfonyl-N-(3-naphthalen-1-yl-1H-indazol-5-yl)-benzenesulfonamide], the melting point was 186 °C. In addition, the inhibition at 10 µM in data set [1] was determined as 21%. Moreover, the inhibition at 10 µM in data set [2] worked out at 41%. In addition, the inhibition at 10 µM in data set [3] turned out to be 78%. The “SRC % inhib at 10 μM” value in data set [4] is 77%.

As for `O=S(=O)(Nc1ccc2[nH]nc(-c3ccccc3)c2c1)c1cccc(Cl)c1` [Example 136, 3-Chloro-N-(3-phenyl-1H-indazol-5-yl)-benzenesulfonamide], the inhibition at 10 µM in data set [1] is 59%; in data set [2] it was 98%; in data set [3], 85%. Moreover, the “SRC % inhib at 10 μM” value in data set [4] came to 62%.

As for `O=S(=O)(Nc1ccc2[nH]nc(-c3ccccc3)c2c1)c1ccccc1Br` [Example 139, 2-Bromo-N-(3-phenyl-1H-indazol-5-yl)-benzenesulfonamide], the figures for the inhibition at 10 µM in data set [1], in data set [2] and in data set [3] were 53%, 96% and 96%, respectively. Further, the “SRC % inhib at 10 μM” value in data set [4] was 51%.

Take `Nc1cccc(S(=O)(=O)Nc2ccc3[nH]nc(-c4ccccc4)c3c2)c1` [Example 98, 3-Amino-N-(3-phenyl-1H-indazol-5-yl)benzenesulfonamide]: the inhibition at 10 µM was 53% in data set [1], 91% in data set [2] and 94% in data set [3]. Also, in data set [4], the “SRC % inhib at 10 μM” value came to 78%.

In turn, `O=S(=O)(Nc1ccc2[nH]nc(-c3ccccc3)c2c1)c1cccnc1` [Example 96, N-(3-Phenyl-1H-indazol-5-yl)pyridine-3-sulfonamide] showed a melting point of 225 °C. Besides, in data set [1], the inhibition at 10 µM is 67%. Moreover, the inhibition at 10 µM in data set [2] is 91%. For the same compound, in data set [3], the inhibition at 10 µM was determined as 100%. Besides, in data set [4], the “SRC % inhib at 10 μM” value was 83%.

Regarding `CS(=O)(=O)c1ccccc1S(=O)(=O)Nc1ccc2[nH]nc(-c3cccs3)c2c1` [Example 50, 2-Methylsulfonyl-N-(3-thiophen-2-yl-1H-indazol-5-yl)benzenesulfonamide], the melting point was determined as 246 °C. Also, in data set [1] (10 µM), the “FAK % inhib at 10 μM” value was determined as 99%. In addition, the “KDR % inhib at 10 μM” value in data set [2] is 80%. For the same compound, the “Aurora2 % inhib at 10 μM” value in data set [3] amounted to 91%. Moreover, the “IGF1R % inhib at 10 μM” value in data set [5] came to 63%.

For the compound `CS(=O)(=O)c1ccccc1S(=O)(=O)Nc1ccc2[nH]nc(Br)c2c1` [Example 38, N-(3-Bromo-1H-indazol-5-yl)-2-methylsulfonylbenzenesulfonamide], the inhibition at 10 µM was determined as 69% in data set [1], 3% in data set [2] and 86% in data set [3]. The “SRC % inhib at 10 μM” value in data set [4] was found to be 56%.

Regarding `O=S(=O)(Nc1ccc2[nH]nc(-c3ccccc3)c2c1)c1cccc(Br)c1` [Example 141, 3-Bromo-N-(3-phenyl-1H-indazol-5-yl)-benzenesulfonamide], the inhibition at 10 µM in data set [1] was 38%; in data set [2], 97%; in data set [3] it was 80%. In addition, the “SRC % inhib at 10 μM” value in data set [4] was found to be 43%.

`CS(=O)(=O)c1ccccc1S(=O)(=O)Nc1ccc2[nH]nc(-c3ccsc3)c2c1` [Example 51, 2-Methylsulfonyl-N-(3-thiophen-3-yl-1H-indazol-5-yl)benzenesulfonamide] displayed a melting point of 249 °C. Further, the inhibition at 10 µM in data set [1] came out at 90%. The inhibition at 10 µM in data set [2] is 55%. For the same compound, the inhibition at 10 µM in data set [3] worked out at 88%.

The compound `CS(=O)(=O)c1ccccc1S(=O)(=O)Nc1ccc2[nH]nc(/C=C/C(=O)O)c2c1.Cl` [Example 80, (E)-3-[5(2-Methylsulfonylbenzenesulfonylamino)-1H-indazol-3-yl]-acrylic acid] yielded a melting point of 170 °C. In data set [1], the inhibition at 10 µM turned out to be 66%. Further, the inhibition at 10 µM in data set [2] turned out to be 32%. The inhibition at 10 µM in data set [3] was found to be 89%.

Consider `O=S(=O)(Nc1ccc2[nH]nc(-c3ccccc3)c2c1)c1cc(Cl)cc(Cl)c1` [Example 137, 3,5-Dichloro-N-(3-phenyl-1H-indazol-5-yl)-benzenesulfonamide], for which the figures for the inhibition at 10 µM in data set [1], in data set [2] and in data set [3] were 53%, 96% and 80%, respectively. Besides, the “SRC % inhib at 10 μM” value in data set [4] stood at 59%.

`CS(=O)(=O)c1ccccc1S(=O)(=O)Nc1ccc2[nH]nc(CCc3ccc(F)cc3)c2c1` [Example 75, N-{3-[2-(4-Fluorophenyl)ethyl]-1H-indazol-5-yl}-2-methylsulfonylbenzenesulfonamide] returned a melting point of 234 °C. Also, the inhibition at 10 µM in data set [1] is 82%. Further, in data set [2], the inhibition at 10 µM stood at 35%. Moreover, the inhibition at 10 µM in data set [3] turned out to be 87%.

`CS(=O)(=O)c1ccccc1S(=O)(=O)Nc1ccc2[nH]nc(CCc3ccccc3)c2c1` [Example 90, 2-Methylsulfonyl-N-(3-phenethyl-1H-indazol-5-yl)benzenesulfonamide]: the melting point worked out at 192 °C. For the same compound, the inhibition at 10 µM in data set [1] was determined as 89%. In addition, the inhibition at 10 µM in data set [2] was 45%. Further, in data set [3], the inhibition at 10 µM was 100%.

As to `CS(=O)(=O)c1ccccc1S(=O)(=O)Nc1ccc2[nH]nc(-c3ccc([N+](=O)[O-])cc3)c2c1` [Example 66, N-[3-(4-Nitrophenyl)-1H-indazol-5-yl]-2-methylsulfonylbenzenesulfonamide], the values for the inhibition at 10 µM in data set [1], in data set [2] and in data set [3] were 75%, 20% and 100%, respectively. Further, in data set [4], the “SRC % inhib at 10 μM” value stood at 90%.

By melting point is commonly meant the temperature of the solid-liquid transition.
